Test results: the supplement of paper PMC11665569

Assays:
H1373 [1] = details: treatment time: 5 days
Procedure: (§1)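 CCK-8 viability of KRAS G12C-mutant cancer cell lines transfected with control, YAP/TAZ or TEAD1-4 siRNAs and treated with KRAS G12C inhibitors for 5 days; IC50 fitted in Prism after normalising absorbance at 450 nm to vehicle control.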

H2030 = details: treatment time: 5 days
Procedure: as §1

H358 = details: treatment time: 5 days
Procedure: as §1

KYSE410 [2] = details: treatment time: 5 days
Procedure: as §1

MIAPACA2 [3] = details: treatment time: 5 days
Procedure: as §1

SW1573 = details: treatment time: 5 days
Procedure: as §1

MIAPACA2 [4] = test: relative viability (fraction of vehicle control); higher = more viable / less inhibited; details: treatment time: 5 days
Procedure: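 CCK-8 viability of MIAPACA2 cells with empty vector or constitutively active YAP S127A, treated with KRAS G12C inhibitors for 5 days, normalised to vehicle control.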

H1373 [5] = test: as above; details: treatment time: 5 days
Procedure: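 CCK-8 viability of H1373 cells with empty vector or constitutively active YAP S127A, treated with KRAS G12C inhibitors for 5 days, normalised to vehicle control.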

KYSE410 [6] = test: as above; details: log10 concentration (uM): 0; siRNA knockdown: TEAD1-4 siRNA 1; treatment time: 5 days
Procedure: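 CCK-8 viability of KYSE410 cells transfected with control, YAP/TAZ or TEAD1-4 siRNAs and treated with KRAS G12C inhibitors for 5 days. Values are normalised to vehicle control.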

C=CC(=O)N1CCN(c2nc(=O)n(-c3c(C)ccnc3C(C)C)c3nc(-c4c(O)cccc4F)c(F)cc23)[C@@H](C)C1 [AMG510]
Details	IC50 (cell viability, 5 days) [nM]	relative viability
H358, siRNA knockdown (Con = control): Con	7.18	–
H358, siRNA knockdown (Con = control): TEAD1234_si1	4.08	–
H358, siRNA knockdown (Con = control): TEAD1234_si2	4.17	–
H358, siRNA knockdown (Con = control): YAP_WWTR1_si1	4.08	–
H358, siRNA knockdown (Con = control): YAP_WWTR1_si2	2.96	–
H1373 [1], siRNA knockdown (Con = control): Con	30.7	–
H1373 [1], siRNA knockdown (Con = control): YAP_WWTR1_si1	10.2	–
H1373 [1], siRNA knockdown (Con = control): YAP_WWTR1_si2	4.31	–
H1373 [5], log10 concentration (uM): 0, ectopic expression: YAP S127A	–	0.575
H1373 [5], log10 concentration (uM): 0, ectopic expression: empty vector (YAP experiment)	–	0.267
H1373 [5], log10 concentration (uM): 1, ectopic expression: YAP S127A	–	0.47
H1373 [5], log10 concentration (uM): 1, ectopic expression: empty vector (YAP experiment)	–	0.245
H1373 [5], log10 concentration (uM): 1.301029996, ectopic expression: YAP S127A	–	0.25
H1373 [5], log10 concentration (uM): 1.301029996, ectopic expression: empty vector (YAP experiment)	–	0.12
H1373 [5], log10 concentration (uM): -1, ectopic expression: YAP S127A	–	0.581
H1373 [5], log10 concentration (uM): -1, ectopic expression: empty vector (YAP experiment)	–	0.351
H1373 [5], log10 concentration (uM): -1.30103, ectopic expression: YAP S127A	–	0.619
H1373 [5], log10 concentration (uM): -1.30103, ectopic expression: empty vector (YAP experiment)	–	0.407
H1373 [5], log10 concentration (uM): -2, ectopic expression: YAP S127A	–	0.636
H1373 [5], log10 concentration (uM): -2, ectopic expression: empty vector (YAP experiment)	–	0.624
H1373 [5], log10 concentration (uM): -2.30103, ectopic expression: YAP S127A	–	0.71
H1373 [5], log10 concentration (uM): -2.30103, ectopic expression: empty vector (YAP experiment)	–	0.68
H1373 [5], log10 concentration (uM): -3, ectopic expression: YAP S127A	–	0.834
H1373 [5], log10 concentration (uM): -3, ectopic expression: empty vector (YAP experiment)	–	0.937
H1373 [5], log10 concentration (uM): -4, ectopic expression: YAP S127A	–	0.986
H1373 [5], log10 concentration (uM): -4, ectopic expression: empty vector (YAP experiment)	–	1.01
H2030, siRNA knockdown (Con = control): TEAD1234_si2	10.9	–
H2030, siRNA knockdown (Con = control): YAP_WWTR1_si1	8.18	–
KYSE410 [2], siRNA knockdown (Con = control): Con	3540	–
KYSE410 [2], siRNA knockdown (Con = control): TEAD1234_si1	853	–
KYSE410 [2], siRNA knockdown (Con = control): YAP_WWTR1_si1	163	–
KYSE410 [2], siRNA knockdown (Con = control): YAP_WWTR1_si2	33.5	–
MIAPACA2 [3], siRNA knockdown (Con = control): Con	163	–
MIAPACA2 [3], siRNA knockdown (Con = control): TEAD1234_si1	66.1	–
MIAPACA2 [3], siRNA knockdown (Con = control): TEAD1234_si2	57.5	–
MIAPACA2 [3], siRNA knockdown (Con = control): YAP_WWTR1_si1	46.3	–
MIAPACA2 [3], siRNA knockdown (Con = control): YAP_WWTR1_si2	69.9	–
MIAPACA2 [4], log10 concentration (uM): 0, ectopic expression: YAP S127A	–	0.773
MIAPACA2 [4], log10 concentration (uM): 0, ectopic expression: empty vector (YAP experiment)	–	0.0894
MIAPACA2 [4], log10 concentration (uM): 1, ectopic expression: YAP S127A	–	0.727
MIAPACA2 [4], log10 concentration (uM): 1, ectopic expression: empty vector (YAP experiment)	–	0.106
MIAPACA2 [4], log10 concentration (uM): 1.301029996, ectopic expression: YAP S127A	–	0.285
MIAPACA2 [4], log10 concentration (uM): 1.301029996, ectopic expression: empty vector (YAP experiment)	–	0.047
MIAPACA2 [4], log10 concentration (uM): -1, ectopic expression: YAP S127A	–	0.861
MIAPACA2 [4], log10 concentration (uM): -1, ectopic expression: empty vector (YAP experiment)	–	0.128
MIAPACA2 [4], log10 concentration (uM): -1.30103, ectopic expression: YAP S127A	–	0.91
MIAPACA2 [4], log10 concentration (uM): -1.30103, ectopic expression: empty vector (YAP experiment)	–	0.237
MIAPACA2 [4], log10 concentration (uM): -2, ectopic expression: YAP S127A	–	0.988
MIAPACA2 [4], log10 concentration (uM): -2, ectopic expression: empty vector (YAP experiment)	–	0.79
MIAPACA2 [4], log10 concentration (uM): -2.30103, ectopic expression: YAP S127A	–	1.03
MIAPACA2 [4], log10 concentration (uM): -2.30103, ectopic expression: empty vector (YAP experiment)	–	0.906
MIAPACA2 [4], log10 concentration (uM): -3, ectopic expression: YAP S127A	–	1.05
MIAPACA2 [4], log10 concentration (uM): -3, ectopic expression: empty vector (YAP experiment)	–	1.03
MIAPACA2 [4], log10 concentration (uM): -4, ectopic expression: YAP S127A	–	1
MIAPACA2 [4], log10 concentration (uM): -4, ectopic expression: empty vector (YAP experiment)	–	1
SW1573, siRNA knockdown (Con = control): Con	12300	–
SW1573, siRNA knockdown (Con = control): TEAD1234_si1	10.9	–
SW1573, siRNA knockdown (Con = control): TEAD1234_si2	4.11	–
SW1573, siRNA knockdown (Con = control): YAP_WWTR1_si1	2.87	–
SW1573, siRNA knockdown (Con = control): YAP_WWTR1_si2	3.42	–

Details	relative viability
KYSE410 [6]	0.586
